Laboratory results reported in ChEMBL document CHEMBL4513101, “Naegleria gruberi Pathogen Box compounds screening” (2021).
Active and inactive are the calls of the source. Cut-off read from the data, not from the text of the source: active = inhibition of 80% or more and inactive = less.

Test system: Naegleria gruberi
Test: microbe, parasite or virus in culture
Type: functional
Settings: NEG-M, CONC 10 uM
Description: Growth inhibiting activity of Naegleria gruberi in vitro

Row | SMILES | inhibition at 10 µM
1 | CO[C@H]1/C=C\O[C@@]2(C)Oc3c(C)c(O)c4c(O)c(/c(=C/NN5CCN(C)CC5)c(O)c4c3C2=O)=N\C(=O)/C(C)=C\C=C/[C@H](C)[C@H](O)[C@@H](C)[C@@H](O)[C@@H](C)[C@H](OC(C)=O)[C@@H]1C | 0% (not active)
2 | CS(=O)(=O)c1ccc(C(=O)N(CC2CCCO2)c2nc3ccccc3s2)cc1[N+](=O)[O-] (stereo not drawn) | 58.7% (not active)
3 | COc1ccc(Cn2cnc3c(-c4ccco4)nc(Cl)nc32)cc1 | 36.9% (not active)
4 | Cc1cc(O)nc(-n2nc(C)cc2C)n1 | 3.8% (not active)
5 | CC(=O)NC[C@@H]1CN(c2ccc(N3CCOCC3)c(F)c2)C(=O)O1 | 20.1% (not active)
6 | O=C(Nc1c(O)cccc1-c1nc2c(C(=O)O)cccc2o1)c1cc(-c2ccccc2)on1 | 18.4% (not active)
7 | COc1ccc(Cl)cc1NC(=O)CN(C)C(=O)c1cnn(-c2ccccc2)n1 | 37.1% (not active)
8 | c1csc(-c2cnc3sc(NCC4CCOCC4)nn23)c1 | 39.9% (not active)
9 | Clc1cccc(CO[C@H]2CCc3ccccc3[C@@H]2n2ccnn2)c1 | 12.6% (not active)
10 | c1ccc(-c2cc(N3CCCCC3)c3ccccc3n2)nc1 | 20.7% (not active)
11 | CCOC(=O)NC(=O)c1ccsc1NC(=O)c1nc2ccccc2s1 | 89.3% (active)
12 | N=C(N)Nc1ccc(-c2ccc(-c3ccc(NC(=N)N)cc3Cl)o2)c(Cl)c1 | 24% (not active)
13 | CC(C)(C)c1cc(C(=O)N2CCN(c3nccnc3C#N)CC2)n(Cc2ccccc2)n1 | 31.6% (not active)
14 | C[C@H](C(N)=O)N1CCCC[C@H]1c1ccc(OCc2cccc(F)c2)cc1 | 15.8% (not active)
15 | Cc1cc(Cl)ccc1NC(=O)CCc1ccc(S(=O)(=O)NCC(C)C)cc1 | 13.9% (not active)
16 | O=C(Nc1cnc2ccccc2c1)c1cccc(-n2cnnn2)c1 | 9.8% (not active)
17 | COc1cccc(-c2cc3c(Nc4cccnc4)nccc3[nH]2)c1 | 10% (not active)
18 | CC1CC1C(=O)NC1CCN(CC2(c3ccccc3)CCCCC2)CC1 (stereo not drawn) | 43.8% (not active)
19 | Cc1nc(-c2ccccn2)nc(N2CCC(Cc3ccccc3)C2)c1Cl (stereo not drawn) | 38.3% (not active)
20 | O=C(NC1CCN(c2ccnc3ccccc23)C1)c1cccc(C(F)(F)F)c1 (stereo not drawn) | 6.7% (not active)
21 | Nc1nc(N)c2c3c(sc2n1)CN(Cc1ccccc1)CC3 | 2.1% (not active)
22 | O=C(c1ccc(NCCO)cc1)C1C[C@H]1c1ccc(Cl)cc1 (stereo partly drawn) | 28.7% (not active)

Row | SMILES | inhibition at 10 µM
23 | CC1(C)OB(O)c2ccc(C3=NOC(c4cc(Cl)c(F)c(Cl)c4)(C(F)(F)F)C3)cc21 (stereo not drawn) | 62.5% (not active)
24 | CO[C@@H](C(=O)N1Cc2[nH]nc(NC(=O)c3ccc(N4CCN(C)CC4)cc3)c2C1)c1ccccc1 [DANUSERTIB] | 41.3% (not active)
25 | CC(=O)NC[C@H]1CN(c2ccc(N3CCSCC3)c(F)c2)C(=O)O1 [SUTEZOLID] | 45.7% (not active)
26 | c1ccc(Oc2ccc(-c3cc(N4CCOCC4)[nH]n3)cc2)cc1 | 22.4% (not active)
27 | Cc1cc(OCC(=O)Nc2ccc(C(C)C)cc2)n(C)c(=O)c1C#N | 18.6% (not active)
28 | CC(C)(C)C(O)C(Oc1ccc(-c2ccccc2)cc1)n1cncn1 (stereo not drawn) [BITERTANOL] | 81% (active)
29 | CC(=O)Nc1ccc(-c2noc(CC3CCCN(Cc4cccc(F)c4C)C3)n2)cc1 (stereo not drawn) | 37.2% (not active)
30 | CCCn1c(NC(=O)c2ccc3ccccc3n2)nc2ccccc21 | 22.6% (not active)
31 | Cc1cc(C(=O)Nc2cnn(Cc3ccc(Cl)cc3Cl)c2)no1 | 65% (not active)
32 | Nc1ccc2ncnc(Nc3ccc(OCc4cccc(F)c4)c(Cl)c3)c2c1 | 10.6% (not active)
33 | CC(C)c1ncc(-c2ccncc2)c([C@H]2CC[C@H](CNC(=O)c3cccnc3)CC2)n1 | 32.5% (not active)
34 | COc1ccc(-c2cc(NC(=O)c3ccc(F)cc3Cl)ccc2OC)cc1 | 38.4% (not active)
35 | O=C(OCc1ccccc1)N1CCC(c2cc(-c3ccncc3)c(-c3ccc(F)cc3)[nH]2)CC1 | 42.4% (not active)
36 | CCc1nc2ccc(C(=O)NCc3ccc4c(c3)OCO4)cn2c1N(C)Cc1cccs1 | 36% (not active)
37 | Cc1nc(-c2ccccn2)nc(N(C)CCc2ccccc2)c1Cl | 21.1% (not active)
38 | CCOc1ccccc1NC(C)C(=O)Nc1cc(C(F)(F)F)ccc1N1CCOCC1 (stereo not drawn) | 20.8% (not active)
39 | O=C(NCc1nnc2n1CCCCC2)c1ccc(-c2ccc(F)cc2)o1 | 29.3% (not active)
40 | CCOc1ccc(-c2nc(CNCCc3ccc(F)cc3)cs2)cc1 | 42.4% (not active)
41 | COc1ccc(C2=NN(C3CCCCCC3)C(=O)[C@@H]3CC=CC[C@H]23)cc1OCCCCOc1ccc(-c2nnn[nH]2)cc1 | 30.2% (not active)
42 | O=C(NCCc1ccccc1)c1cc(-c2cccnc2)cnc1NCC1CC1 | 37.7% (not active)
43 | Cc1ccc2nc(Cl)c(CNCc3cccs3)cc2c1 | 35.5% (not active)
44 | CN1CCC(c2cc(-c3ccncc3)c(-c3ccc(F)cc3)[nH]2)CC1 | 0% (not active)

Row | SMILES | inhibition at 10 µM
45 | O=C(Nc1cccc(Cl)c1)c1cnc(N2CCN(c3ccncc3)CC2)c(Cl)c1 | 39.6% (not active)
46 | O=C(C1CCCCC1)N1CC(=O)N2CCc3ccccc3C2C1 (stereo not drawn) [PRAZIQUANTEL] | 41.5% (not active)
47 | CCOc1ccc2cc(-c3nn(CC4CCN(C)CC4)c4ncnc(N)c34)ccc2c1 | 28% (not active)
48 | CN1CCCN(C(c2ccccc2)c2ccc(Cl)cc2)CC1 (stereo not drawn) [HOMOCHLORCYCLIZINE] | 11.6% (not active)
49 | NS(=O)(=O)c1cccc(-c2ccc3ncc(N4CCOCC4)nc3c2)c1 | 26% (not active)
50 | Nc1ncc(-c2cn[nH]c2)cc1-c1nc2cc(Cl)cnc2[nH]1 | 10.2% (not active)
51 | Clc1ccc(Cl)c(CO[C@H]2CCCC[C@@H]2n2ccnc2)c1 | 35.1% (not active)
52 | Cc1noc(C)c1COc1cccc(C(=O)N=c2[nH]cccc2C)c1 | 36.7% (not active)
53 | CC[C@@H]([C@H](C)O)n1ncn(-c2ccc(N3CCN(c4ccc(OC[C@@H]5CO[C@@](Cn6cncn6)(c6ccc(F)cc6F)C5)cc4)CC3)cc2)c1=O [POSACONAZOLE] | 84.8% (active)
54 | COc1ccc(N(CCc2cccc(C)n2)C(=O)C2CCCCC2)cc1 | 20% (not active)
55 | CC(C)(C)OC(=O)N1CCN(c2cc(-c3ccc(Oc4ccccc4)cc3)n[nH]2)CC1 | 65.7% (not active)
56 | C[C@H]1COc2c(N3CCN(C)CC3)c(F)cc3c(=O)c(C(=O)O)cn1c23 [LEVOFLOXACIN] | 0% (not active)
57 | N=C(N)Nc1ccc(-c2ccc(-c3ccc(N=C(N)N)c(Cl)c3)o2)cc1Cl | 22.3% (not active)
58 | CCc1nn(C)c(C(=O)NCc2ccc(Oc3ccc(C)cc3)cc2)c1Cl [TOLFENPYRAD] | 93.3% (active)
59 | COc1cccc2c(C)nc(N=C(N)N)nc12 | 24.2% (not active)
60 | COc1ccccc1OCCCCn1c(C2CC2)nc2ccccc21 | 42.6% (not active)
61 | Nc1ncc(-c2ccc(C(F)(F)F)nc2)cc1-c1ccc(C(F)(F)F)nc1 | 16.5% (not active)
62 | Cc1ccc(S(=O)(=O)Nc2ccc(CN3CCN(C(=O)c4cccc(C#N)c4)CC3)cc2)cc1 | 19.9% (not active)
63 | CCC(=O)Nc1ccccc1C(=O)Nc1ccccn1 | 35.7% (not active)
64 | Nc1nccc2ccc(-c3ccc4nccn4c3)cc12 | 8.2% (not active)
65 | CNC(=O)C1Cc2c([nH]c3cc(Cl)ccc23)C2(CCN(CCc3ccccc3)CC2)N1 (stereo not drawn) | 11.5% (not active)
66 | COCC(C)NC(=O)CSc1ncnc2sc(-c3ccccc3)cc12 (stereo not drawn) | 45.7% (not active)

Row | SMILES | inhibition at 10 µM
67 | Clc1cccc(C(c2ccc(CN3CCNCC3)cc2)n2ccnc2)c1 (stereo not drawn) | 20.3% (not active)
68 | CCC(C)NC(=O)c1ccc(NC(=O)C2(c3ccccc3)CCCC2)cc1 (stereo not drawn) | 0.4% (not active)
69 | Cc1ccc2nc(C)c(-c3ccn(Cc4ccccc4)n3)n2c1 | 9.5% (not active)
70 | O=C(COc1cccc(F)c1)Nc1nc(-c2ccccn2)cs1 | 24.2% (not active)
71 | O=C(c1ccc(F)cc1)N(CCNc1ccccc1)c1ccccc1 | 24.1% (not active)
72 | COc1cc(OC)cc(C(=O)NCC2Cc3cc(Cl)cc(-c4ccncc4)c3O2)c1 (stereo not drawn) | 20.9% (not active)
73 | CCc1ccccc1-n1c(C)cn2c3c(=O)n(C(C(=O)OC)C(C)C)c(=O)n(C)c3nc12 (stereo not drawn) | 4.4% (not active)
74 | COc1ccc(OC)c(NCc2ccc3nc(N)nc(N)c3c2Cl)c1 | 33.6% (not active)
75 | O=C(NCCc1c[nH]c2ccccc12)c1cc2ccccc2oc1=O | 33.7% (not active)
76 | Cc1nc(-c2ccccn2)nc(NCCc2ccc(S(C)(=O)=O)cc2)c1Cl | 26.6% (not active)
77 | COc1ccc(Nc2ccccc2NC(=O)c2ccc(O)nc2)cc1 | 24.1% (not active)
78 | Cc1nn2c(=O)c3c([nH]c2c1-c1ccc(Cl)cc1)CCCC3 | 30.5% (not active)
79 | O=C(Nc1nnc(S)s1)c1cc(Br)ccc1Cl | 11.5% (not active)
80 | CN1CCN(CCCOc2ncc(Nc3ncc(-c4ccc(C(F)(F)F)c(F)c4)nc3C(N)=O)cn2)CC1 | 12.9% (not active)
81 | CC(C)(C)n1nc(-c2ccccc2)c2c(N)ncnc21 | 55.1% (not active)
82 | COc1cccc(-n2nnnc2S(C)(=O)=O)c1 | 78.8% (not active)
83 | Nc1ncnc2c1c(-c1cnc3ccccc3c1)nn2CC1CCNCC1 | 4.9% (not active)
84 | COc1ccc(-c2nn(C(C)C)c3ncnc(N)c23)cc1OC | 49.5% (not active)
85 | Nc1nccc2ccc(Oc3ccncc3)cc12 | 3% (not active)
86 | CCCn1c(CNc2ccccc2O)nc2ccccc21 | 39.9% (not active)
87 | c1ccc(Oc2ccc(-c3cc(CN4CCOCC4)[nH]n3)cc2)cc1 | 3.2% (not active)
88 | COc1cc(Br)cc2cc(C(=O)Nc3cccc(C(F)(F)F)c3)c(=O)oc12 | 21% (not active)
